According to patent US9145415B2, “Nitrogen-containing heterocyclic compound or salt thereof” (FUJIFILM Corporation, priority 2012, dated 2015):
pIC50: −log10 of the molar value. Like-named read-outs stand apart in the source and are kept apart here.

How the values were obtained:
[1] = target: T1, human FLT3 protein (FLT3 (WT)) (Homo sapiens, UniProt P36888); test: FLT3 inhibition test (FLT3 enzyme inhibition, time-resolved fluorescence of substrate peptide phosphorylation); type: biochemical; settings: read-out: FLT3 (WT) enzyme inhibition activity
T1 construct: human FLT3 protein (intracellular region, 564 to 993 aa); GST; purchased Carna Biosciences; host or cells: baculovirus expression system
T1 sequence (P36888 564-993): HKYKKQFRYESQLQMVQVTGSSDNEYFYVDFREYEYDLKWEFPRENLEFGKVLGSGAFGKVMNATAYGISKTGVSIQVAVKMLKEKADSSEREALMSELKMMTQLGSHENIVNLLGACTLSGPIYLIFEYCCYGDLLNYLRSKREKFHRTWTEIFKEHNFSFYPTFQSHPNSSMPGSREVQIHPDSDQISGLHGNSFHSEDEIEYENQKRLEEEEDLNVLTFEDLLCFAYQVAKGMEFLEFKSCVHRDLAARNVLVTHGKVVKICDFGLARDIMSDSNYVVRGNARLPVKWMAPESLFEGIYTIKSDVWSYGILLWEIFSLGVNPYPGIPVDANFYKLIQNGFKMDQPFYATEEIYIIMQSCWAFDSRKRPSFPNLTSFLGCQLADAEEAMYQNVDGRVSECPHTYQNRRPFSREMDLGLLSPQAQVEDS
Method in brief: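 Wild-type human FLT3 (1.2 μg) pre-incubated with compound 15 min at 25° C in 100 mM HEPES pH 7.5, 10 mM MgCl2, 25 mM NaCl, 1 mM DTT. Reaction started with substrate peptide and ATP (final 50 μM), run 30 min at 25° C; phosphorylation read by time-resolved fluorescence.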

MV4-11 cells = test: Leukemia cell proliferation inhibition test (ATPlite), MV4-11; type: cell-based; settings: Homo sapiens, read-out: MV4-11 cell proliferation inhibition effect
Method in brief: (§1)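 72 h proliferation, 37° C/5% CO2; 10,000 cells/well, RPMI/10% FBS; ATPlite luminescence (RLU); 0.1% DMSO taken as 0% inhibition; GI50 via sigmoid fit, n=2.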

Molm-13 cells = test: Leukemia cell proliferation inhibition test (ATPlite), Molm-13; type: cell-based; settings: Homo sapiens, read-out: MOLM13 cell proliferation inhibition effect
Method in brief: as §1

[2] = GST-fused human FLT3 (564 to 993 aa), ATP 50 μM
[3] = MV4-11, 72 h, MV4-11, 72 hours culture, ATPlite, GI50 per method
[4] = MOLM-13, 72 h, Molm-13, 72 hours culture, ATPlite, GI50 per method

`CCCNc1nc(Nc2cnc3c(c2)c(C)nn3C)ncc1C#CCCCNC(=O)[C@@H]1CCCN1C(=O)/C=C/CN(C)C` [Compound 22-45] was tested, and the pIC50 ([1]; FLT3 (WT)) was > 8.00, the pIC50 (MV4-11 cells; MV4-11, MV4-11 cell) was > 8.00 and the pIC50 (Molm-13 cells; MOLM-13, MOLM13 cell) was > 8.00.

In the case of `COc1ccc(Nc2nc(Nc3cccc(F)c3)ncc2C#CCCCNC(=O)[C@H](C)N(C)C(=O)/C=C/CN(C)C)cc1` [Compound 10-3, (S,E)-4-(Dimethylamino)-N-(1-((5-(2-((3-fluorophenyl)amino)-4-((4-methoxyphenyl)amino)pyrimidin-5-yl)-4-pentyn-1-yl)amino)-1-oxopropan-2-yl)-N-methyl-2-butenamide], the pIC50 [1, 2] was > 8.00, the pIC50 (MV4-11 cells; [3]) was > 8.00 and the pIC50 (Molm-13 cells; [4]) was > 8.00.

`CNc1nc(Nc2ccc(F)cc2)ncc1C#CCCCNC(=O)[C@@H]1C[C@H](C)CN1C(=O)/C=C/CN(C)C` [Compound 7-92] was tested, and the pIC50 [1, 2] was > 8.00, the pIC50 (MV4-11 cells; [3]) was > 8.00 and the pIC50 (Molm-13 cells; [4]) was > 8.00.

In the case of `C[C@@H](C(=O)NCCCC#Cc1cnc(Nc2ccc(C(N)=O)cc2)nc1N1CCCC1)N(C)C(=O)/C=C/CN(C)C` [Compound 9-7], the pIC50 [1, 2] was > 8.00, the pIC50 (MV4-11 cells; [3]) was > 8.00 and the pIC50 (Molm-13 cells; [4]) was > 8.00.

For `CCCNc1nc(Nc2ccc3cn(C)nc3c2)ncc1C#CCCCNC(=O)[C@H](C)N(C)C(=O)/C=C/CN(C)C` [Compound 21-10], the pIC50 [1, 2] was > 8.00, the pIC50 (MV4-11 cells; [3]) was 7.00 to 8.00 and the pIC50 (Molm-13 cells; [4]) was 7.00 to 8.00.

For `CCCN(C)c1nc(Nc2cccc(F)c2)ncc1C#CCCCNC(=O)[C@H](C)N(C)C(=O)/C=C/CN(C)C` [Compound 9-5], the pIC50 [1, 2] was > 8.00, the pIC50 (MV4-11 cells; [3]) was 7.00 to 8.00 and the pIC50 (Molm-13 cells; [4]) was 7.00 to 8.00.

In the case of `CNc1ncc(C#C[C@@H]2CCC[C@H](NC(=O)[C@H](C)N(C)C(=O)/C=C/CN(C)C)C2)c(Nc2ccc(F)cc2)n1` [Compound 21-37], the pIC50 ([1]; FLT3 (WT)) was > 8.00, the pIC50 (MV4-11 cells; MV4-11, MV4-11 cell) was > 8.00 and the pIC50 (Molm-13 cells; MOLM-13, MOLM13 cell) was > 8.00.

`CCCNc1nc(Nc2cnc3c(cnn3CCOC)c2)ncc1C#CCCCNC(=O)[C@H](C)N(C)C(=O)/C=C/CN(C)C` [Compound 22-40] was tested, and the pIC50 ([1]; FLT3 (WT)) was > 8.00, the pIC50 (MV4-11 cells; MV4-11, MV4-11 cell) was > 8.00 and the pIC50 (Molm-13 cells; MOLM-13, MOLM13 cell) was > 8.00.

In the case of `CCCNc1nc(Nc2ccc(C(N)=O)cc2)ncc1C(=O)Nc1cccc(NC2CCCN(C(=O)/C=C/CN(C)C)CC2)c1` (stereo not drawn) [Compound 3-21], the pIC50 [1, 2] was > 8.00, the pIC50 (MV4-11 cells; [3]) was 6.00 to 7.00 and the pIC50 (Molm-13 cells; [4]) was 6.00 to 7.00.

`CCCNc1nc(Nc2cccc(F)c2)ncc1C#CCCCNC(=O)[C@@H]1CCN1C(=O)/C=C/CN(C)C` [Compound 7-51] was tested, and the pIC50 [1, 2] was > 8.00, the pIC50 (MV4-11 cells; [3]) was > 8.00 and the pIC50 (Molm-13 cells; [4]) was > 8.00.

In the case of `CCCNc1nc(Nc2ccc(C(N)=O)cc2)ncc1C(=O)Nc1cccc(NC(=O)C(C)(C)NC(=O)/C=C/CN(C)C)c1` [Compound 3-13], the pIC50 [1, 2] was > 8.00, the pIC50 (MV4-11 cells; [3]) was 7.00 to 8.00 and the pIC50 (Molm-13 cells; [4]) was 7.00 to 8.00.

In the case of `CCCNc1nc(Nc2ccnc(F)c2)ncc1C#C[C@@H]1CCC[C@H](NC(=O)[C@H](C)N(C)C(=O)/C=C/CN(C)C)C1` [Compound 14-1, (E)-4-(dimethylamino)-N—((S)-1-(((1S,3R)-3-((2-((2-fluoropyridin-4-yl)amino)-4-(propylamino)pyrimidin-5-yl)ethynyl)cyclohexyl)amino)-1-oxopropan-2-yl)-N-methyl-2-butenamido], the pIC50 [1, 2] was > 8.00, the pIC50 (MV4-11 cells; [3]) was > 8.00 and the pIC50 (Molm-13 cells; [4]) was > 8.00.

`CCCNc1nc(Nc2ccc3c(OC)nn(C)c3c2)ncc1C#CCCCNC(=O)[C@H](C)N(C)C(=O)/C=C/CN(C)C` [Compound 22-26] was tested, and the pIC50 ([1]; FLT3 (WT)) was > 8.00, the pIC50 (MV4-11 cells; MV4-11, MV4-11 cell) was 7.00 to 8.00 and the pIC50 (Molm-13 cells; MOLM-13, MOLM13 cell) was 7.00 to 8.00.

With `COCCCNc1nc(Nc2ccc3[nH]ncc3c2)ncc1C#CCCCNC(=O)[C@@H]1CCCN1C(=O)/C=C/CN(C)C` [Compound 10-68, (S,E)-N-(5-(2-((1H-Indazol-5-yl)amino)-4-((3-methoxypropyl)amino)pyrimidin-5-yl)-4-pentyn-1-yl)-1-(4-(dimethylamino)-2-butenoyl)pyrrolidine-2-carboxamide] the pIC50 [1, 2] was > 8.00, the pIC50 (MV4-11 cells; [3]) was > 8.00 and the pIC50 (Molm-13 cells; [4]) was > 8.00.

For `CCNc1nc(Nc2ccc3cn[nH]c3c2)ncc1C#CCCCNC(=O)[C@H](C)N(C)C(=O)/C=C/CN(C)C` [Compound 10-64], the pIC50 [1, 2] was > 8.00, the pIC50 (MV4-11 cells; [3]) was > 8.00 and the pIC50 (Molm-13 cells; [4]) was > 8.00.

`CCCNc1nc(Nc2ccc3[nH]nc(OC)c3c2)ncc1C#CCCCNC(=O)[C@@H]1CCCN1C(=O)/C=C/CN(C)C` [Compound 22-67] was tested, and the pIC50 ([1]; FLT3 (WT)) was > 8.00, the pIC50 (MV4-11 cells; MV4-11, MV4-11 cell) was > 8.00 and the pIC50 (Molm-13 cells; MOLM-13, MOLM13 cell) was > 8.00.

With `C=CC(=O)NCC(=O)Nc1cccc(NC(=O)c2cnc(Nc3ccc(C(N)=O)cc3)nc2NCCC)c1` [Compound 3-8] the pIC50 [1, 2] was > 8.00, the pIC50 (MV4-11 cells; [3]) was 7.00 to 8.00 and the pIC50 (Molm-13 cells; [4]) was 7.00 to 8.00.

In the case of `CCCNc1nc(Nc2ccc3sc(C)nc3c2)ncc1C#CCCCNC(=O)[C@H](C)N(C)C(=O)/C=C/CN(C)C` [Compound 22-7], the pIC50 ([1]; FLT3 (WT)) was > 8.00, the pIC50 (MV4-11 cells; MV4-11, MV4-11 cell) was 7.00 to 8.00 and the pIC50 (Molm-13 cells; MOLM-13, MOLM13 cell) was 7.00 to 8.00.

`CCCNc1nc(Nc2ccc(C#N)cc2)ncc1C(=O)Nc1cccc(NC(=O)[C@H](C)N(C)C(=O)/C=C/CN(C)C)c1` [Compound 6-1, (S,E)-2-((4-cyanophenyl)amino)-N-(3-(2-(4-(dimethylamino)-N-methyl-2-butenamido)propanamido)phenyl)-4-(propylamino)pyrimidine-5-carboxamide] was tested, and the pIC50 [1, 2] was > 8.00, the pIC50 (MV4-11 cells; [3]) was > 8.00 and the pIC50 (Molm-13 cells; [4]) was 7.00 to 8.00.

For `CCCNc1nc(Nc2ncc(C#N)s2)ncc1C#CCCCNC(=O)[C@H](C)N(C)C(=O)/C=C/CN(C)C` [Compound 22-22], the pIC50 ([1]; FLT3 (WT)) was > 8.00, the pIC50 (MV4-11 cells; MV4-11, MV4-11 cell) was > 8.00 and the pIC50 (Molm-13 cells; MOLM-13, MOLM13 cell) was > 8.00.

With `CC[C@@H](C(=O)NCCCC#Cc1cnc(Nc2ccc(F)nc2)nc1Nc1ccc(OC)cc1)N(C)C(=O)/C=C/CN(C)C` [Compound 10-37] the pIC50 [1, 2] was > 8.00, the pIC50 (MV4-11 cells; [3]) was > 8.00 and the pIC50 (Molm-13 cells; [4]) was > 8.00.

For `CNc1nc(Nc2ccc3[nH]ncc3c2)ncc1C#CCCCNC(=O)[C@H](C)N(C)C(=O)/C=C/CN(C)C` [Compound 10-60], the pIC50 [1, 2] was > 8.00, the pIC50 (MV4-11 cells; [3]) was > 8.00 and the pIC50 (Molm-13 cells; [4]) was > 8.00.

With `CCCNc1nc(Nc2cccc(OC(F)F)c2)ncc1C#CCCCNC(=O)[C@H](C)N(C)C(=O)/C=C/CN(C)C` [Compound 9-28] the pIC50 [1, 2] was > 8.00, the pIC50 (MV4-11 cells; [3]) was > 8.00 and the pIC50 (Molm-13 cells; [4]) was > 8.00.

In the case of `C[C@@H](C(=O)N[C@H]1CCC[C@@H](C#Cc2cnc(Nc3ccnc(F)c3)nc2N2CCOCC2)C1)N(C)C(=O)/C=C/CN(C)C` [Compound 14-3], the pIC50 [1, 2] was > 8.00, the pIC50 (MV4-11 cells; [3]) was > 8.00 and the pIC50 (Molm-13 cells; [4]) was > 8.00.

`CCCN(C)c1nc(NCCc2ccncc2)ncc1C#Cc1cccc(NC(=O)[C@H](C)N(C)C(=O)/C=C/CN(C)C)c1` [Compound 12-14, (S,E)-4-(dimethylamino)-N-methyl-N-(1-((3-((4-(methyl(propyl)amino)-2-((2-(pyridin-4-yl)ethyl)amino)pyrimidin-5-yl)ethynyl)phenyl)amino)-1-oxopropan-2-yl)-2-butenamide] was tested, and the pIC50 [1, 2] was > 8.00, the pIC50 (MV4-11 cells; [3]) was > 8.00 and the pIC50 (Molm-13 cells; [4]) was > 8.00.

With `CCCNc1nc(NCCc2ccncc2)ncc1C(=O)Nc1cccc(NC(=O)CNC(=O)/C=C/CN2CCN(CCO)CC2)c1` [Compound 2-16] the pIC50 [1, 2] was > 8.00, the pIC50 (MV4-11 cells; [3]) was 7.00 to 8.00 and the pIC50 (Molm-13 cells; [4]) was 6.00 to 7.00.

`CCCNc1nc(Nc2ccc(C#N)cc2)ncc1C#CCCCNC(=O)[C@@H]1C[C@H](F)CN1C(=O)/C=C/CN(C)C` [Compound 7-50] was tested, and the pIC50 [1, 2] was > 8.00, the pIC50 (MV4-11 cells; [3]) was > 8.00 and the pIC50 (Molm-13 cells; [4]) was > 8.00.

`COCCCNc1nc(Nc2cccc(F)c2)ncc1C#C[C@H]1C[C@@H](NC(=O)[C@H](C)N(C)C(=O)/C=C/CN(C)C)C1` [Compound 15-15, (E)-4-(Dimethylamino)-N—((S)-1-(((1S,3R)-3-((2-((3-fluorophenyl)amino)-4-((3-methoxypropyl)amino)pyrimidin-5-yl)ethynyl)cyclobutyl)amino)-1-oxopropan-2-yl)-N-methyl-2-butenamide] was tested, and the pIC50 [1, 2] was > 8.00, the pIC50 (MV4-11 cells; [3]) was > 8.00 and the pIC50 (Molm-13 cells; [4]) was > 8.00.
